Measurements: US20180000085A1, “USE OF PICOLINAMIDE COMPOUNDS WITH FUNGICIDAL ACTIVITY” (DOW AGROSCIENCES LLC, priority 2014, published 2018)

Key:
Format in all cases: in vivo
[1] = tested on: Zymoseptoria tritici; assay: Leaf blotch of wheat (SEPTTR) disease control on wheat seedlings; design: key to SEPTTR 1DP, HV activity at 100 ppm (% control rating) / SEPTTR 3DC, HV activity at 100 ppm (% control rating) / SEPTTR disease control, 1DP / SEPTTR disease control, 3DC / SEPTTR 1DP disease control rating, HV activity / SEPTTR 3DC disease control rating, HV activity / SEPTTR 3DC, LV activity at 125.1 g/H (% Control rating) / SEPTTR 1DP, LV activity at 125.1 g/H (% Control rating) / SEPTTR 1DP disease control rating, LV activity at 125.1 g/H / SEPTTR 3DC disease control rating, LV activity at 125.1 g/H / SEPTTR 3DC disease control rating, HV activity at 100 ppm / SEPTTR 1DP disease control rating, HV activity at 100 ppm / HV activity at 100 ppm SEPTTR 3DC (disease control rating) / HV activity at 100 ppm SEPTTR 1DP (disease control rating) / LV activity at 125.1 g/H SEPTTR 1DP (disease control rating) / LV activity at 125.1 g/H SEPTTR 3DC (disease control rating): A: > 80; B: ≤ 80; C: Not Tested; D: No Activity Observed in the Reported Assay; conditions: low volume application, 125.1 g/H; for SEPTTR 1DP disease control rating, LV activity at 125.1 g/H: 1 day protectant; for SEPTTR 3DC disease control rating, LV activity at 125.1 g/H: 3 day curative
[2] = tested on: Puccinia triticina; assay: Wheat brown rust (PUCCRT) disease control on wheat seedlings; conditions: low volume application, 125.1 g/H; for PUCCRT 1DP disease control rating, LV activity at 125.1 g/H: 1 day protectant; for PUCCRT 3DC disease control rating, LV activity at 125.1 g/H: 3 day curative
[3] = tested on: Phakopsora pachyrhizi; assay: Asian soybean rust (PHAKPA) disease control; design: key: A: > 80; B: ≤ 80; C: Not Tested; D: No Activity Observed in the Reported Assay; conditions: 25 ppm; for PHAKPA disease control, 1DP: 1 Day Protectant; for PHAKPA disease control, 3DC: 3 Day Curative

Row | SMILES | SEPTTR 1DP, LV activity at 125.1 g/H (% Control rating) ([1]; 1 Day Protectant) | SEPTTR 3DC, LV activity at 125.1 g/H (% Control rating) ([1]; 3 Day Curative) | PUCCRT 1DP, LV activity at 125.1 g/H (% Control rating) ([2]; 1 Day Protectant) | PUCCRT 3DC, LV activity at 125.1 g/H (% Control rating) ([2]; 3 Day Curative) | PHAKPA disease control, 1DP [3] | PHAKPA disease control, 3DC [3] | SEPTTR 1DP disease control rating, LV activity at 125.1 g/H [1] | SEPTTR 3DC disease control rating, LV activity at 125.1 g/H [1] | PUCCRT 1DP disease control rating, LV activity at 125.1 g/H [2] | PUCCRT 3DC disease control rating, LV activity at 125.1 g/H [2]
1 | COc1ccnc(C(=O)N[C@@H](C)C(=O)O[C@@H](C)[C@H](Oc2ccccc2Cl)c2ccccc2)c1OCOC(C)=O [Cmpd 639] | B (≤ 80) | A (> 80) | A (> 80) | A (> 80) | A (> 80) | B (≤ 80) | – | – | – | –
2 | CCC(CC)[C@H](Oc1cccc(F)c1)[C@H](C)OC(=O)[C@H](C)NC(=O)c1nccc(OC)c1OCOC(C)=O [Cmpd 668] | – | – | – | – | B (≤ 80) | B (≤ 80) | A (> 80) | A (> 80) | A (> 80) | A (> 80)
3 | CCC(CC)[C@H](Oc1ccc(Cl)cc1)[C@H](C)OC(=O)[C@H](C)NC(=O)c1nccc(OC)c1OCOC(C)=O [Cmpd 669] | – | – | – | – | A (> 80) | B (≤ 80) | A (> 80) | A (> 80) | A (> 80) | A (> 80)
4 | CCC(CC)[C@H](Oc1ccc(Cl)cc1Cl)[C@H](C)OC(=O)[C@H](C)NC(=O)c1nccc(OC)c1OCOC(C)=O [Cmpd 670] | – | – | – | – | B (≤ 80) | B (≤ 80) | A (> 80) | A (> 80) | A (> 80) | A (> 80)
5 | C=CC(C)C(Oc1ccccc1)C(C)OC(=O)C(C)NC(=O)c1nccc(OC)c1OC(C)=O (stereo not drawn) [Cmpd 693] | – | – | – | – | A (> 80) | B (≤ 80) | B (≤ 80) | A (> 80) | A (> 80) | A (> 80)
6 | CCC[C@@H](Oc1ccccc1)[C@H](C)OC(=O)[C@H](C)NC(=O)c1nccc(OC)c1OC(C)=O [Cmpd 696] | – | – | – | – | A (> 80) | A (> 80) | A (> 80) | A (> 80) | A (> 80) | A (> 80)
7 | COc1ccnc(C(=O)N[C@@H](C)C(=O)O[C@@H](C)[C@H](OCC2CC2)c2cccc(-c3ccccc3)c2)c1OCOC(C)=O [Cmpd 873] | – | – | – | – | A (> 80) | B (≤ 80) | B (≤ 80) | A (> 80) | A (> 80) | A (> 80)
8 | COc1ccnc(C(=O)N[C@@H](C)C(=O)O[C@@H](C)[C@H](OCC(C)C)c2ccccc2)c1OC(C)=O [Cmpd 879] | – | – | – | – | A (> 80) | B (≤ 80) | B (≤ 80) | A (> 80) | A (> 80) | A (> 80)
9 | CCCO[C@H](c1ccccc1)[C@H](C)OC(=O)[C@H](C)NC(=O)c1nccc(OC)c1OC(C)=O [Cmpd 884] | – | – | – | – | A (> 80) | D | B (≤ 80) | A (> 80) | A (> 80) | A (> 80)
10 | COc1ccnc(C(=O)N[C@@H](C)C(=O)O[C@@H](C)[C@@H](OC)c2ccccc2)c1OCOC(C)=O [Cmpd 886] | – | – | – | – | B (≤ 80) | B (≤ 80) | D | A (> 80) | A (> 80) | A (> 80)
11 | COc1ccnc(C(=O)NC(C)C(=O)OC(C)C(Oc2ccccc2)C2CCCCC2)c1OC(C)=O (stereo not drawn) [Cmpd 908] | – | – | – | – | A (> 80) | B (≤ 80) | A (> 80) | A (> 80) | A (> 80) | A (> 80)
12 | COc1ccnc(C(=O)NC(C)C(=O)OC(C)C(Oc2cccc(F)c2)C2CCCC2)c1OCOC(C)=O (stereo not drawn) [Cmpd 909] | – | – | – | – | A (> 80) | B (≤ 80) | A (> 80) | A (> 80) | A (> 80) | A (> 80)
13 | COc1ccnc(C(=O)NC(C)C(=O)OC(C)C(Oc2ccc(F)cc2)C2CCCC2)c1OCOC(C)=O (stereo not drawn) [Cmpd 910] | – | – | – | – | A (> 80) | B (≤ 80) | A (> 80) | A (> 80) | A (> 80) | A (> 80)
14 | COc1ccnc(C(=O)N[C@@H](C)C(=O)O[C@@H](C)[C@H](Oc2cccc(Cl)c2)C2CCCC2)c1OCOC(C)=O [Cmpd 911, (S)-(1R,2S)-1-(3-chlorophenoxy)-1-cyclopentylpropan-2-yl-2-(3-(acetoxymethoxy)-4-methoxypicolinamido)propanoate] | – | – | – | – | A (> 80) | B (≤ 80) | A (> 80) | A (> 80) | A (> 80) | A (> 80)
15 | COc1ccnc(C(=O)NC(C)C(=O)OC(C)C(Oc2ccc(Cl)cc2)C2CCCC2)c1OCOC(C)=O (stereo not drawn) [Cmpd 912] | – | – | – | – | B (≤ 80) | B (≤ 80) | A (> 80) | A (> 80) | A (> 80) | A (> 80)
16 | COc1ccnc(C(=O)NC(C)C(=O)OC(C)C(OCC(C)C)C2CCCC2)c1OCOC(C)=O (stereo not drawn) [Cmpd 915] | – | – | – | – | A (> 80) | B (≤ 80) | B (≤ 80) | A (> 80) | A (> 80) | A (> 80)
17 | COc1ccnc(C(=O)NC(C)C(=O)OC(C)C(Oc2ccc(C)cc2)C2CCCC2)c1OCOC(C)=O (stereo not drawn) [Cmpd 916] | – | – | – | – | A (> 80) | D | A (> 80) | B (≤ 80) | A (> 80) | A (> 80)
18 | COc1cccc(OC(C2CCCC2)C(C)OC(=O)C(C)NC(=O)c2nccc(OC)c2OCOC(C)=O)c1 (stereo not drawn) [Cmpd 917] | – | – | – | – | B (≤ 80) | B (≤ 80) | B (≤ 80) | A (> 80) | A (> 80) | A (> 80)
19 | COc1ccnc(C(=O)N[C@@H](C)C(=O)O[C@@H](C)[C@H](Oc2ccc(F)cc2)C2CCCC2)c1OC(C)=O [Cmpd 919] | – | – | – | – | A (> 80) | D | A (> 80) | A (> 80) | A (> 80) | A (> 80)
